In ChEMBL document CHEMBL5291721, “A preclinical secondary pharmacology resource illuminates target-adverse drug reaction associations of marketed drugs” (Nat Commun, 2023):

Key:
[1] = target: T1, Alpha-2C adrenergic receptor (Homo sapiens, UniProt P18825); assay type: functional
T1 sequence (P18825 whole entry): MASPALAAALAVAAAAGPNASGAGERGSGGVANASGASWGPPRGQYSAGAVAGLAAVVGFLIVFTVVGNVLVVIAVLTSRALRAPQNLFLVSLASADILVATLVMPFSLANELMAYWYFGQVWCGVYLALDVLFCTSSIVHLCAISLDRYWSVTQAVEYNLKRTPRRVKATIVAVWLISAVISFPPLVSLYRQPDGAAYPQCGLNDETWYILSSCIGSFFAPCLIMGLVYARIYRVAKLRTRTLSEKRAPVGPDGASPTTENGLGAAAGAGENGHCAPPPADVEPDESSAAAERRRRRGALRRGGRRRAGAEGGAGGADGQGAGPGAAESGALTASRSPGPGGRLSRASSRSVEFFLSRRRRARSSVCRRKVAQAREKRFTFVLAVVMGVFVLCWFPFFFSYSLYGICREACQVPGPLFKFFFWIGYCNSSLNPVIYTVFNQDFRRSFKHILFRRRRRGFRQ

[2] = target: Cannabinoid receptor 1 (Homo sapiens, UniProt P21554); assay type: functional, cell-based
[3] = target: Beta-1 adrenergic receptor (Homo sapiens, UniProt P08588); assay type: functional
[4] = target: T2, Alpha-1A adrenergic receptor (Homo sapiens, UniProt P35348); assay type: functional, cell-based
T2 sequence (P35348 whole entry): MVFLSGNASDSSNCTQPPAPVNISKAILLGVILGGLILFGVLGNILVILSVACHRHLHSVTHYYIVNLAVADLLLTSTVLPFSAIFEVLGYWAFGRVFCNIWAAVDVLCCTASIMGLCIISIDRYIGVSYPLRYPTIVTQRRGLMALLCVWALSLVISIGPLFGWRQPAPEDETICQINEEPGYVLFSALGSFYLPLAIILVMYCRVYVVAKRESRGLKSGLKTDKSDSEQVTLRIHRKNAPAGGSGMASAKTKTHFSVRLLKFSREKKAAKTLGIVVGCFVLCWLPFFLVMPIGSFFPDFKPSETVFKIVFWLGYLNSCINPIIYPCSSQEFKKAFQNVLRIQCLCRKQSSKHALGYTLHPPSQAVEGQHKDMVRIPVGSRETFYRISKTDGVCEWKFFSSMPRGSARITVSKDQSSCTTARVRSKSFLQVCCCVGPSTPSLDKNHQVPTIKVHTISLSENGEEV

[5] = target: T3, Alpha-2A adrenergic receptor (Homo sapiens, UniProt P08913); assay type: functional, cell-based
T3 sequence (P08913 whole entry): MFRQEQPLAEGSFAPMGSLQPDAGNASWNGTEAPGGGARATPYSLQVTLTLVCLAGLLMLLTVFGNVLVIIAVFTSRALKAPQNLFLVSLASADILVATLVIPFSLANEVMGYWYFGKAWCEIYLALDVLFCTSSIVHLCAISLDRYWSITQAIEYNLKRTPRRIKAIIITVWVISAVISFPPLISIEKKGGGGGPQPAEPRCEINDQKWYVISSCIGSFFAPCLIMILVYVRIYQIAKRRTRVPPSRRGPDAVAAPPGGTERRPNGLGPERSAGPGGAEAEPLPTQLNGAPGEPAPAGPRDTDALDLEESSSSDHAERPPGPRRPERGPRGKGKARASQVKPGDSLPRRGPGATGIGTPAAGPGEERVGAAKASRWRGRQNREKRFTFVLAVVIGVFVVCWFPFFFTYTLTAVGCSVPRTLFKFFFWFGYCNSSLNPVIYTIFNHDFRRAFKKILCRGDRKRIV

[6] = target: Sodium-dependent dopamine transporter (Homo sapiens, UniProt Q01959)
[7] = target: T4, 5-hydroxytryptamine receptor 1A (Homo sapiens, UniProt P08908)
T4 sequence (P08908 whole entry): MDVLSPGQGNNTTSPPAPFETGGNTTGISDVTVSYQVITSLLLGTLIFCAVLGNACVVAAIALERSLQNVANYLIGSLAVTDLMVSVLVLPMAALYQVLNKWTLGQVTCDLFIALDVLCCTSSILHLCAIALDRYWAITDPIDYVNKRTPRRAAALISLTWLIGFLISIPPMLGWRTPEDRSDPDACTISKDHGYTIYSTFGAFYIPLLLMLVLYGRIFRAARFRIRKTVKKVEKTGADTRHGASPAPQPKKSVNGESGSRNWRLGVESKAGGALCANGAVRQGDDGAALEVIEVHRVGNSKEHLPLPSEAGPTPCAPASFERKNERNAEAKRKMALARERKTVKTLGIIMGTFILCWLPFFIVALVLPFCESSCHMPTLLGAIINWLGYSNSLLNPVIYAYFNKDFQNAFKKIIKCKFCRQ

[8] = target: 3',5'-cyclic-AMP phosphodiesterase 4A (Homo sapiens, UniProt P27815); assay type: functional
[9] = target: T5, Amine oxidase [flavin-containing] A (Homo sapiens, UniProt P21397); assay type: functional
T5 sequence (P21397 whole entry): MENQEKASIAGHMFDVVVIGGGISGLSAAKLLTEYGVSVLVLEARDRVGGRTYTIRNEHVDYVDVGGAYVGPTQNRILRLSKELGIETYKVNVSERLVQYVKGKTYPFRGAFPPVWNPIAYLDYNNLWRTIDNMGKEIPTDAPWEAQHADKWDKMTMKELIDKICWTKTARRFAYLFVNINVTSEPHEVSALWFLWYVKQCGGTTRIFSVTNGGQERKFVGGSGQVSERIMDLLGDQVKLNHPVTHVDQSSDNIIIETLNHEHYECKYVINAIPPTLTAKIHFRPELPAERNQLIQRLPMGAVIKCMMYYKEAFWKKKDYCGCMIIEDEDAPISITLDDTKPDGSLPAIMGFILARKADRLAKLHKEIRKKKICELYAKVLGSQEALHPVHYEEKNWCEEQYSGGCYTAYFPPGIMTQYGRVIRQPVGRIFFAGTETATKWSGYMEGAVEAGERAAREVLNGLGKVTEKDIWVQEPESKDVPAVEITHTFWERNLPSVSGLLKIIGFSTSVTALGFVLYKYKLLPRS

Measured: AC50
Further: assay procedure not described here.

Sequence of Beta-1 adrenergic receptor (P08588 whole entry): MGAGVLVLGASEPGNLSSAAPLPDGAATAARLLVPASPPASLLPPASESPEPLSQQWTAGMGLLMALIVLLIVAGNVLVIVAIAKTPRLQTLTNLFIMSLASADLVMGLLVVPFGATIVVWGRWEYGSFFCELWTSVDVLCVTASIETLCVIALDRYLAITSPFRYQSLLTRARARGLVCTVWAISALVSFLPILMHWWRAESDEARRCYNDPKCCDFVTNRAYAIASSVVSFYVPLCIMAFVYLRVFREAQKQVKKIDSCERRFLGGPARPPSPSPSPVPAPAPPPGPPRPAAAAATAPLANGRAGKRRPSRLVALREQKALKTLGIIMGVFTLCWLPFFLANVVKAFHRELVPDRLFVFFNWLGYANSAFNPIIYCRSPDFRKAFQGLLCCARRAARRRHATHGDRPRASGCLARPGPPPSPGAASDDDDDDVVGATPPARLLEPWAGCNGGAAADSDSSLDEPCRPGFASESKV
Sequence of Cannabinoid receptor 1 (P21554 whole entry): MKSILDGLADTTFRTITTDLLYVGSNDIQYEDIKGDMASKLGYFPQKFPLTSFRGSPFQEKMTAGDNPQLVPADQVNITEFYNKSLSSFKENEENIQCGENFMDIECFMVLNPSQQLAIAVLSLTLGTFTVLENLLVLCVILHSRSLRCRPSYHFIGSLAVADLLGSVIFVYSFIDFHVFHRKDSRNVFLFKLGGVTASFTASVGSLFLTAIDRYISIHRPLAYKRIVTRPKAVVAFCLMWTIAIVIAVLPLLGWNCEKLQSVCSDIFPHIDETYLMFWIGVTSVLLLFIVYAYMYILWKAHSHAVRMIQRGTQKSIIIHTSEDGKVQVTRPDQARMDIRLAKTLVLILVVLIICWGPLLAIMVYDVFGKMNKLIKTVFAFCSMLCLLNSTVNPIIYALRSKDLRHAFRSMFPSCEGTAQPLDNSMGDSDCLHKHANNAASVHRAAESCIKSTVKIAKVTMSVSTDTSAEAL
Sequence of Sodium-dependent dopamine transporter (Q01959 whole entry): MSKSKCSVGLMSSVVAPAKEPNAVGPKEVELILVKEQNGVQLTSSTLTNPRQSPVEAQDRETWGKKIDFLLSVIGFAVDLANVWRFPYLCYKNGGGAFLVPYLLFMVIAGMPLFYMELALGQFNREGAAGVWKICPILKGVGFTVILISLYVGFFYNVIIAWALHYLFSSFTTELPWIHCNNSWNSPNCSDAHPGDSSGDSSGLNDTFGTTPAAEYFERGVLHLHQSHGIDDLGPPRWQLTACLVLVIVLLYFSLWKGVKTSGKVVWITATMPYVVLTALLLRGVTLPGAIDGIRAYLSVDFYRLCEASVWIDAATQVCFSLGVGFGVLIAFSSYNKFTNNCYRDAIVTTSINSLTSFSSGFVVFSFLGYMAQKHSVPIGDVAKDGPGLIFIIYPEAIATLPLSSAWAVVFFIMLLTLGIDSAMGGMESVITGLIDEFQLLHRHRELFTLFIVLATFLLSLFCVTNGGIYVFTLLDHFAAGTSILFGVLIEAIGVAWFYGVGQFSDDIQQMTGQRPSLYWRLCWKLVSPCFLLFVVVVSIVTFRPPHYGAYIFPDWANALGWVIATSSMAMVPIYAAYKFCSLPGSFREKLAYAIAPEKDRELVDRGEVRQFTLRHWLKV
Sequence of 3',5'-cyclic-AMP phosphodiesterase 4A (P27815 whole entry): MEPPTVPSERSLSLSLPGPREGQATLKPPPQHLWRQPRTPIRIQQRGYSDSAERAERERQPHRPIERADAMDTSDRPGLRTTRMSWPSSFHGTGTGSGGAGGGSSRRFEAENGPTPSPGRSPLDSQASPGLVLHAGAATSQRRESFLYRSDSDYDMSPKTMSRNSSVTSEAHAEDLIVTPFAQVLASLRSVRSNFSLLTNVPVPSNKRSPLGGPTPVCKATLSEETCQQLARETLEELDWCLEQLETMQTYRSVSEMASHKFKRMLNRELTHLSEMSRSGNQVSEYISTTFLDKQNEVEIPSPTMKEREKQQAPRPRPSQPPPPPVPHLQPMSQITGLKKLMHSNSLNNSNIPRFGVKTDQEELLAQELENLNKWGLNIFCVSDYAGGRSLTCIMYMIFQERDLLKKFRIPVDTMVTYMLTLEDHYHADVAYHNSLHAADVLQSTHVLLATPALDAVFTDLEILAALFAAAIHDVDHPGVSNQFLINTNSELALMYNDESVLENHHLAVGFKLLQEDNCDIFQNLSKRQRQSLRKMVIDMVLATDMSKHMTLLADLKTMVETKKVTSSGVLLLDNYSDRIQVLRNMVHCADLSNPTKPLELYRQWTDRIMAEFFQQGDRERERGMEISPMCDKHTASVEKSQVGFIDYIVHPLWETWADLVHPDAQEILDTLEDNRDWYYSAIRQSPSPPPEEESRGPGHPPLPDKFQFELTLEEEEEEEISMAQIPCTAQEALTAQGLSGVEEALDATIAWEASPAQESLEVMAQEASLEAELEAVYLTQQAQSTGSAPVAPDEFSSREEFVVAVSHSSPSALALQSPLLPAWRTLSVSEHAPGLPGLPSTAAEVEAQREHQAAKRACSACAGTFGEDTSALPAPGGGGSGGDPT

CCN(CC)C(=O)C1(c2ccccc2)CC1CN (centres undefined)
> 30 µM: [1] | [2] | [3] | [4] | [5]

CN(C)C(=O)Oc1cccc([N+](C)(C)C)c1 [NEOSTIGMINE]
> 30 µM: [6] | [7] | [8] | [9]
